Where “and” joins values, the source holds several entries; their conditions need not be identical. Identical values can stand only once.
Key:
[1] = test system: MCP-1; assay: Gene expression analysis of endometrial implants (TaqMan), MCP-1; format: in vivo, rat; conditions: corrected by GAPDH, n 6, E2 control 29.47 ± 20.81
Experimental: Total RNA was extracted […] the rat-derived endometrial graft (27 specimens), then quality of the RNA was inspected with a spectrophotometer and bio-analyzer, and then reverse transcription reaction of the RNA was performed, followed by gene expression analysis was performed according to TaqMan method.
RNA was extracted from the rat uterine horn strips and grafted uterine strip using the RNeasy Fibrous Tissue Mini Kit.
Concentration of the extracted RNA was measured with a NanaoDrop. Also RIN measurements using a bioanalyzer (6000 nano kits) was carried out. A 6000 pico-kit was used for bioanalyzing of the two samples with low yield (Sample ID: 202, 507).
cDNA obtained by reverse transcription reaction from 1000 ng/uL of commercially available Rat Tissue Universal Reference Total RNA (Catalog Number PR-UR-100, ZYAGEN Inc.) using SuperScript VILO Master Mix (hereinafter “Standard”) was used as a standard substance.
Based on the concentration measured with a spectrophotometer, reverse transcription reaction of the specimen with Super Script VILO Master Mix was performed to give 50 ng/uL of cDNA (the following example). […]
TaqMan reaction by using Step One Plus Real-Time PCR System was performed with standard 250, 62.5, 15.625, 3.9, 0.98 ng/well or sample 5.0 ng/well. A cycle of reaction, two minutes at 50° C. and 10 minutes at 95° C., followed by 15 seconds at 95° C. and one minute at 60° C., was repeated 40 cycles, then the fluorescence value FAM was measured in real time after the reaction at 60° C. In addition to the target eight genes, GAPDH gene as an internal control gene was measured. All the standards and samples were measured in triplicate.
From each of the two calibration curves (target gene, GAPDH gene) obtained from the standard, gene expressions level of the target gene and GAPDH gene of the sample was calculated, respectively. […] And then, an average gene expression level of the samples in each group was calculated, followed by the average gene expression level of the two groups was used as a standard to compare with each of the other groups.

[2] = test system: rat endometriosis model (grafted uterine strips); assay: Endometriosis inhibiting activity: grafted uterine strip weight in ovariectomized, E2-treated rat endometriosis model; format: in vivo; conditions: for Total wet weight of the grafted uterine strips: left and right strips including abdominal wall, vehicle 0.4785 g, Sham 0.2596 g; for Suppression rate of grafted uterine strip weight (% ± SE): vs vehicle control, strip weight after subtracting Sham abdominal wall; for Suppression rate of the grafted uterine strip (average value): vehicle control group set as 0%, Table 2
Experimental: Buprenorphine hydrochloride (Lepetan injection 0.3 mg, Otsuka Pharmaceutical Co., Ltd., […] of which was diluted to 6.7 times with a physiological saline solution to provide 0.03 mg/mL solution when using) was administered subcutaneously into the back of the rats at a dose of 0.0024 mg/body (0.08 mL/body). The administration period was two days, which includes twice before and after the model preparation on the day when the model was prepared, and twice per day on the next day. It should be noted that the dosage amount of 0.0024 mg/body was the one that satisfied a recommended dose of 0.01 mg/kg in […] (0.0096 mg/kg) (estimated weight upon model preparation: 180 to 240 g).
Under 2% inhalation anesthesia, left and right flanks of the rats (operation site) were shaved, and the skin of one of the flasks was dissected. After peeling off the skin, the muscle layer was cut to open using a retractor so as to protrude it to the outside of the body with fat tissue around the ovary, then the fallopian tubes were ligated with a silk thread (sterile suture) followed by removing the ovary including the fat tissue. The peeled muscle layer and one part of the peritoneum were sutured with silk thread (sterile suture), then kanamycin solution, antibiotics, (manufactured by Meiji Seika Pharma Co., Ltd., “Meiji,” kanamycin sulfate injection of 1000 mg was diluted to 5 mg/mL with injection solvent) was applied to the operation site. The dissected skin was sutured with silk thread (sterile suture). Another ovary in the opposite side was removed in the same manner. At the time of the operation, sterile gloves were used, and surgical instruments used were sterilized by an autoclave and beads sterilizer. The surgical area was shaved with an electric clipper followed by disinfected with isodine alcohol and covered with a sterile bedsheet and a covering cloth.
Since the day of ovariectomy, after it was performed, E2 (β-Estradiol, 3 μg/mL animal) was subcutaneously administered to the back of the rats every day for 2 weeks. E2 (3 μg/mL animal) was administered in the same manner during 4 weeks after model preparation on the date that the model was prepared.
Thirteen days after ovariectomy (day 0 counting), the rats were divided into four groups (N=8) as the total weight on the grouping day was uniform in each group. Animals excluded from the groups were distributed to the Sham group.
On the next day of the grouping, models were prepared in accordance with Uchiide et al method, which was partially modified Vernon et al method. Rats were placed under inhalation anesthesia of 2% isoflurane, and made an incision in the abdomen along the midline, then the right uterine horn was excised and cut in half along the vertical line after removing the fat cells around the excised uterine horn. The uterine horn was made an incision along the horizontal axis to cut out two strips of approximately 5 mm×5 mm. The serosal surface of the abdominal cavity and the endometrial surface of the uterus strips were faced and sawed up the four corners thereof with a bioabsorbable suture (6-0, PDS-II, manufactured by Ethicon) to graft the uterine horns into the right and left abdominal walls one by one. In order to avoid adhesion, the abdominal cavity was washed with saline (manufactured by Otsuka Pharmaceutical Factory). Then, the abdominal wall fascia was sawed up with a bioabsorbable suture (4-0, monocryl, manufactured by Ethicon) and the skin was sawed up with a silk suture (4-0, blade silk, manufactured by Ethicon).
A required amount of SR16234 was weighed, pulverized with an agate mortar and pestle, and suspended in 0.5% carboxymethylcellulose sodium (CMC-Na) solution to prepare a 2 mg/mL solution, then used as undiluted solution. Preparation was performed using a volumetric flask. […]

## CCN(CC)Cc1ccc(OCC[C@H]2CC[C@H]3[C@@H]4[C@H](C)Cc5cc(O)ccc5[C@H]4CC[C@]23C)c(OC)c1 [SR16234, (7α)-21-[4-[(diethylamino)methyl]-2-methoxyphenoxy]-7-methyl-19-norpregna-1,3,5(10)-triene-3-ol]
[1]; 0.1 mg/kg
  Expression level MCP-1: 41.95 ± 21.68 ng
[1]; 0.3 mg/kg
  Expression level MCP-1: 28.30 ± 10.93 ng
[1]; 1 mg/kg
  Expression level MCP-1: 26.70 ± 18.30 ng
[2]; 0.1 mg/kg p.o. 28 days
  Total wet weight of the grafted uterine strips: 0.3988 g
[2]; 0.1 mg/kg p.o. once a day for 28 days
  Suppression rate of grafted uterine strip weight (% ± SE): 36.4 ± 25.2%
[2]; 0.1 mg/kg p.o.
  Suppression rate of the grafted uterine strip (average value): 26%
[2]; 0.3 mg/kg p.o. 28 days
  Total wet weight of the grafted uterine strips: 0.3401 g
[2]; 0.3 mg/kg p.o. once a day for 28 days
  Suppression rate of grafted uterine strip weight (% ± SE): 63.2 ± 17.7%
[2]; 0.3 mg/kg p.o.
  Suppression rate of the grafted uterine strip (average value): 45%
[2]; 1.0 mg/kg administered group
  Suppression rate of the grafted uterine strip weight compared to the vehicle control group (in words): particularly significant suppression rate
  Total wet weight of the grafted uterine strips compared to the vehicle control group (in words): particularly significant suppression ratio
[2]; 1.0 mg/kg p.o. 28 days
  Total wet weight of the grafted uterine strips: 0.2647 g
[2]; 1.0 mg/kg p.o. once a day for 28 days
  Suppression rate of grafted uterine strip weight (% ± SE): 97.7 ± 21.2%
[2]; 1.0 mg/kg p.o.
  Suppression rate of the grafted uterine strip (average value): 68% and 69.0%

Source: patent US10369159B2, “Estrogen receptor β partial agonist having estrogen receptor α inhibitory effect, and gynecological disease therapeutic agent using same” (NOBELPHARMA CO., LTD., priority 2015, dated 2019)
